In article PMC4511751, “Rapid Expansion of Phenylthiocarbamide Non-Tasters among Japanese Macaques” (PLoS ONE, 2015):

Assays:
MfTAS2R38TR-K = biological target: T1, MfTAS2R38TR-K (Macaca fuscata, UniProt F1T2T8); conditions: truncated allele Mf-K; pH 7.4
T1 construct: gene tas2r38

MmTAS2R38WT-a = biological target: T2, MmTAS2R38WT-a (Macaca mulatta, UniProt F1T2U6); experiment: calcium imaging, fluo-4, FlexStation, HEK293T with G-alpha16gust44; assay type: cell-based
T2 construct: gene tas2r38; full-length TAS2R38, N-terminal first 45 residues of rat ssr3 and C-terminal last 8 residues of bovine rhodopsin as tags, pEAK10, HEK293T, co-expressed with chimeric G-alpha16gust44
T2 sequence (F1T2U6 1-333): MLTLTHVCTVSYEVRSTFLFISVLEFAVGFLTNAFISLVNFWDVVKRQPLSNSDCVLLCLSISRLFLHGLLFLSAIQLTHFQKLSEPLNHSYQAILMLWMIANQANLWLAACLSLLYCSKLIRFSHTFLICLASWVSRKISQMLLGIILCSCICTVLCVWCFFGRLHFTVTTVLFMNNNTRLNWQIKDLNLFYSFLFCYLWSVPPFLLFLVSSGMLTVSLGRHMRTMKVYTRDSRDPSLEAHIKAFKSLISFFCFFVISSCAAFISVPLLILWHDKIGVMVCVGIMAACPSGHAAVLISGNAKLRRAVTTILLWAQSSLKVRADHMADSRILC

T1 sequence (F1T2T8 1-237): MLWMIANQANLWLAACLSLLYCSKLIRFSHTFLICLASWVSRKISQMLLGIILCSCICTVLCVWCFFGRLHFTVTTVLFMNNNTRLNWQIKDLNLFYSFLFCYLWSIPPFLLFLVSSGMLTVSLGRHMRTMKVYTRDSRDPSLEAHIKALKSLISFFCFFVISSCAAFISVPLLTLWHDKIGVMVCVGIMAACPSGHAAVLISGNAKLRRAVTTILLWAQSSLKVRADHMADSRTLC

NC(=S)Nc1ccccc1 [phenylthiocarbamide]
calcium imaging, fluo-4, FlexStation, HEK293T with G-alpha16gust44 (MfTAS2R38TR-K): failed to respond to PTC
EC50 (MmTAS2R38WT-a): 560 nM
